Test results published in PubChem BioAssay AID1845201 (Molecular Pharmacology Branch, DTP, NCI, 2023).
Blank lines part the entries; values can stand above or below the molecule they belong to.

Tested on: COR L88 complex tumor spheroid viability
Assay: Anticancer human tumor COR L88 cell line growth inhibition;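 note: compound exposure lasted 7 days before viability readout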;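 for viability, T/C: percent of DMSO vehicle-treated spheroids = 100%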
Conditions: for viability, T/C: stronger effect = lower value
Outline: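 Single agents and combinations were tested on spheroids built from tumor cells plus HUVEC and hMSC, at half-log dilutions starting at or near clinical Cmax, else 10 microM; final DMSO 0.25% (v/v).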

[1] = curve of first compound, second compound 0.003 µM
[2] = second compound 0.003 µM, first compound 0.00949 µM
[3] = second compound 0.003 µM, first compound 0.03 µM
[4] = second compound 0.003 µM, first compound 0.0949 µM
[5] = second compound 0.003 µM, first compound 0.3 µM
[6] = second compound 0.003 µM, first compound 0.949 µM
[7] = second compound 0.003 µM, first compound 3 µM

SMILES: Cn1ncnc1[C@H]1c2n[nH]c(=O)c3cc(F)cc(c23)N[C@@H]1c1ccc(F)cc1 + COc1cc2c(cc1O)CCNC21CSC2c3c(OC(C)=O)c(C)c4c(c3C(COC1=O)N1C(O)C3Cc5cc(C)c(OC)c(O)c5C(C21)N3C)OCO4
IC50 (curve of first compound, second compound 30 pM): 255 nM | IC50 (curve of first compound, second compound 94.9 pM): 120 nM | IC50 (curve of first compound, second compound 0.0003 µM): 40.1 nM | IC50 (curve of first compound, second compound 0.000949 µM): < 9.49 nM | IC50 [1]: < 9.49 nM | viability, T/C (second compound 30 pM, first compound 0.00949 µM): 90.9% | viability, T/C (second compound 30 pM, first compound 0.03 µM): 72.8% | viability, T/C (second compound 30 pM, first compound 0.0949 µM): 58.9% | viability, T/C (second compound 30 pM, first compound 0.3 µM): 47.3% | viability, T/C (second compound 30 pM, first compound 0.949 µM): 43.9% | viability, T/C (second compound 30 pM, first compound 3 µM): 37.3% | viability, T/C (second compound 94.9 pM, first compound 0.00949 µM): 77.1% | viability, T/C (second compound 94.9 pM, first compound 0.03 µM): 61.3% | viability, T/C (second compound 94.9 pM, first compound 0.0949 µM): 50.5% | viability, T/C (second compound 94.9 pM, first compound 0.3 µM): 45.8% | viability, T/C (second compound 94.9 pM, first compound 0.949 µM): 42.5% | viability, T/C (second compound 94.9 pM, first compound 3 µM): 38.5% | viability, T/C (second compound 0.0003 µM, first compound 0.00949 µM): 57.9% | viability, T/C (second compound 0.0003 µM, first compound 0.03 µM): 51.9% | viability, T/C (second compound 0.0003 µM, first compound 0.0949 µM): 46.1% | viability, T/C (second compound 0.0003 µM, first compound 0.3 µM): 43.6% | viability, T/C (second compound 0.0003 µM, first compound 0.949 µM): 39.4% | viability, T/C (second compound 0.0003 µM, first compound 3 µM): 41% | viability, T/C (second compound 0.000949 µM, first compound 0.00949 µM): 53.6% | viability, T/C (second compound 0.000949 µM, first compound 0.03 µM): 45% | viability, T/C (second compound 0.000949 µM, first compound 0.0949 µM): 44.2% | viability, T/C (second compound 0.000949 µM, first compound 0.3 µM): 36.2% | viability, T/C (second compound 0.000949 µM, first compound 0.949 µM): 13.9% | viability, T/C (second compound 0.000949 µM, first compound 3 µM): 2.75% | viability, T/C [2]: 1.06% | viability, T/C [3]: 0.96% | viability, T/C [4]: 0.96% | viability, T/C [5]: 0.79% | viability, T/C [6]: 1.64% | viability, T/C [7]: 2.68%

IC50 (compound alone, run of 10/17/2019): > 100000 nM
SMILES: Cn1nnc2c(C(N)=O)ncn2c1=O
viability, T/C (compound 1 µM): 96.2% [middle of 10 runs] | viability, T/C (compound 3.16 µM): 96.8% [middle of 10 runs] | viability, T/C (compound 10 µM): 95% [middle of 10 runs] | viability, T/C (compound 31.6 µM): 84.1% [middle of 10 runs] | viability, T/C (compound 100 µM): 70.6% [middle of 10 runs]

SMILES: Cc1sc2c(c1C)C(c1ccc(Cl)cc1)=NC(CC(=O)Nc1ccc(O)cc1)c1nnc(C)n1-2 (stereo unspecified) + CC[C@@]1(O)C(=O)OCc2c1cc1n(c2=O)Cc2cc3c(CN(C)C)c(O)ccc3nc2-1
IC50 [1]: 406 nM | IC50 (curve of first compound, second compound 0.00949 µM): 441 nM | IC50 (curve of first compound, second compound 0.03 µM): 531 nM | IC50 (curve of first compound, second compound 0.0949 µM): 185 nM | IC50 (curve of first compound, second compound 0.3 µM): 70.9 nM | viability, T/C [2]: 107% | viability, T/C [3]: 82.7% | viability, T/C [4]: 100% | viability, T/C [5]: 59.9% | viability, T/C [6]: 23.6% | viability, T/C [7]: 15.1% | viability, T/C (second compound 0.00949 µM, first compound 0.00949 µM): 81.8% | viability, T/C (second compound 0.00949 µM, first compound 0.03 µM): 92.6% | viability, T/C (second compound 0.00949 µM, first compound 0.0949 µM): 104% | viability, T/C (second compound 0.00949 µM, first compound 0.3 µM): 64.2% | viability, T/C (second compound 0.00949 µM, first compound 0.949 µM): 23.7% | viability, T/C (second compound 0.00949 µM, first compound 3 µM): 13.3% | viability, T/C (second compound 0.03 µM, first compound 0.00949 µM): 71.2% | viability, T/C (second compound 0.03 µM, first compound 0.03 µM): 88.7% | viability, T/C (second compound 0.03 µM, first compound 0.0949 µM): 106% | viability, T/C (second compound 0.03 µM, first compound 0.3 µM): 73% | viability, T/C (second compound 0.03 µM, first compound 0.949 µM): 25.3% | viability, T/C (second compound 0.03 µM, first compound 3 µM): 8.57% | viability, T/C (second compound 0.0949 µM, first compound 0.00949 µM): 66.6% | viability, T/C (second compound 0.0949 µM, first compound 0.03 µM): 76.2% | viability, T/C (second compound 0.0949 µM, first compound 0.0949 µM): 85.2% | viability, T/C (second compound 0.0949 µM, first compound 0.3 µM): 31.2% | viability, T/C (second compound 0.0949 µM, first compound 0.949 µM): 7.66% | viability, T/C (second compound 0.0949 µM, first compound 3 µM): 5.05% | viability, T/C (second compound 0.3 µM, first compound 0.00949 µM): 53.1% | viability, T/C (second compound 0.3 µM, first compound 0.03 µM): 60.9% | viability, T/C (second compound 0.3 µM, first compound 0.0949 µM): 47.4% | viability, T/C (second compound 0.3 µM, first compound 0.3 µM): 9.5% | viability, T/C (second compound 0.3 µM, first compound 0.949 µM): 3.88% | viability, T/C (second compound 0.3 µM, first compound 3 µM): 2.4%

SMILES: CC1COCCN1c1cc(-c2ccnn2C)c2ccnc(-c3ccn[nH]3)c2n1 (stereo unspecified) + Cn1nnc2c(C(N)=O)ncn2c1=O
IC50 (curve of first compound, second compound 1 µM): 159 nM | IC50 (curve of first compound, second compound 3.16 µM): 77.4 nM | IC50 (curve of first compound, second compound 10 µM): < 31.6 nM | IC50 (curve of first compound, second compound 31.6 µM): < 31.6 nM | IC50 (curve of first compound, second compound 100 µM): < 31.6 nM | viability, T/C (second compound 1 µM, first compound 0.0316 µM): 80.7% | viability, T/C (second compound 1 µM, first compound 0.1 µM): 53.9% | viability, T/C (second compound 1 µM, first compound 0.316 µM): 41.1% | viability, T/C (second compound 1 µM, first compound 1 µM): 26.6% | viability, T/C (second compound 1 µM, first compound 3.16 µM): 11.2% | viability, T/C (second compound 1 µM, first compound 10 µM): 5.06% | viability, T/C (second compound 3.16 µM, first compound 0.0316 µM): 59% | viability, T/C (second compound 3.16 µM, first compound 0.1 µM): 47.8% | viability, T/C (second compound 3.16 µM, first compound 0.316 µM): 33.9% | viability, T/C (second compound 3.16 µM, first compound 1 µM): 22.4% | viability, T/C (second compound 3.16 µM, first compound 3.16 µM): 11.9% | viability, T/C (second compound 3.16 µM, first compound 10 µM): 4.44% | viability, T/C (second compound 10 µM, first compound 0.0316 µM): 46.1% | viability, T/C (second compound 10 µM, first compound 0.1 µM): 36.3% | viability, T/C (second compound 10 µM, first compound 0.316 µM): 29.4% | viability, T/C (second compound 10 µM, first compound 1 µM): 18.4% | viability, T/C (second compound 10 µM, first compound 3.16 µM): 9.76% | viability, T/C (second compound 10 µM, first compound 10 µM): 3.5% | viability, T/C (second compound 31.6 µM, first compound 0.0316 µM): 41.7% | viability, T/C (second compound 31.6 µM, first compound 0.1 µM): 33.8% | viability, T/C (second compound 31.6 µM, first compound 0.316 µM): 24.1% | viability, T/C (second compound 31.6 µM, first compound 1 µM): 16.8% | viability, T/C (second compound 31.6 µM, first compound 3.16 µM): 7.93% | viability, T/C (second compound 31.6 µM, first compound 10 µM): 3.99% | viability, T/C (second compound 100 µM, first compound 0.0316 µM): 34.3% | viability, T/C (second compound 100 µM, first compound 0.1 µM): 27.8% | viability, T/C (second compound 100 µM, first compound 0.316 µM): 21.5% | viability, T/C (second compound 100 µM, first compound 1 µM): 12.3% | viability, T/C (second compound 100 µM, first compound 3.16 µM): 6.89% | viability, T/C (second compound 100 µM, first compound 10 µM): 3.01%
